Assay results as given in patent US11098044B2, “Imidazopyridinyl compounds and use thereof for treatment of neurodegenerative disorders” (1ST Biotherapeutics, Inc., priority 2019, dated 2021).

Legend:
Type in all cases: biochemical
LRRK2 (WT) = LRRK2 (WT) (Homo sapiens (Human), UniProt Q5S007); test: LRRK2 Kinase Assay (Adapta); conditions: 70 μM ATP, LRRKtide substrate
Description: (§1) The LRRK2 and LRRK2 G2019S kinase assays were performed using the Adapta™ technology in ThermoFisher Scientific. This experiment was carried out according to the supplier's protocol. Briefly, assay conditions were as follows. The mixture of substrate (LRRKtide) and each kinase was prepared in 50 mM Tris pH 8.5, 0.01% BRIJ-35, 10 mM MgCl2, 1 mM EGTA, 0.02% NaN3. Assays were performed in the presence of 70 μM ATP and 100 μM ATP (KmATP) in LRRK2 and LRRK2 G2019S, respectively. The reaction was progressed at room temperature for 1 hour. Upon completion of kinase reaction, 5 μL of Detection Mix was added and after 60 min incubation time, the emission ratio of 665/615 nm was calculated.

[1] = target: c-Abl (His-tagged recombinant human ABL1) (Homo sapiens (Human), UniProt P00519); test: c-abl Kinase Assay (ADP-Glo); conditions: ATP (25 μM), Abltide substrate
Sequence of c-Abl (His-tagged recombinant human ABL1) (P00519 whole entry): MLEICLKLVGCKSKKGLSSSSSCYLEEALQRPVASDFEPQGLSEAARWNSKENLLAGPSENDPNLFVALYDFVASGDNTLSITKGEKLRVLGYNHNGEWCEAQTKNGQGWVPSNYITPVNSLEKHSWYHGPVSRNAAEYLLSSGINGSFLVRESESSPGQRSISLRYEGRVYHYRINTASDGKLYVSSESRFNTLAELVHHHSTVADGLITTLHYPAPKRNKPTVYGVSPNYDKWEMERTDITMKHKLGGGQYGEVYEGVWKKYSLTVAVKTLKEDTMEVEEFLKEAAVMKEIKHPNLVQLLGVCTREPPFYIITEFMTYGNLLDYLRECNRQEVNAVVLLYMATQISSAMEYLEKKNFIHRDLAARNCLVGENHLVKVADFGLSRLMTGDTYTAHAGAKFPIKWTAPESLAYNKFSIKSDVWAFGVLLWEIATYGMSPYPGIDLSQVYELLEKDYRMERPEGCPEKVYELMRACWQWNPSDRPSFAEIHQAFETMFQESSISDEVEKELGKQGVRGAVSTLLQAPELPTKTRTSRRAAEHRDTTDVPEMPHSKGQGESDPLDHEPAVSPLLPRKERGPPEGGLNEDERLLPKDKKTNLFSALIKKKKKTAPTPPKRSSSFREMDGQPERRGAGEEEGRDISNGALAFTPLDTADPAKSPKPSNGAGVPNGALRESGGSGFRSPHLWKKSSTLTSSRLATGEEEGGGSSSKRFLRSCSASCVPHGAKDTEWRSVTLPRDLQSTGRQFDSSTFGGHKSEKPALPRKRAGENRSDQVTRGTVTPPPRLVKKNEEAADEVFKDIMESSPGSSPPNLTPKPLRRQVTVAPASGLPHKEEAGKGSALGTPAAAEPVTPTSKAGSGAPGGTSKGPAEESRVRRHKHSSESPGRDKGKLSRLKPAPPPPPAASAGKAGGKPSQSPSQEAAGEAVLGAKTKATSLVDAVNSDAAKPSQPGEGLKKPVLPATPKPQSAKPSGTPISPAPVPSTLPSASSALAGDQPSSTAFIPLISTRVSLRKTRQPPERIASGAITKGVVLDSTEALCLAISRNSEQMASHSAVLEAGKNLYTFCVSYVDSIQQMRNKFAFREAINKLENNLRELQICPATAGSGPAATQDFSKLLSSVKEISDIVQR
Description: ADP-Glo assay kit was purchased from Promega. Magnesium chloride (MgCl2), bovine serum albumin (BSA), ethylene glycol-bis(p-aminoethyl ether)-N,N,N′,N′-tetraacetic acid (EGTA), triton X-100, 1,4-dithiothreitol (DTT) and dimethyl sulfoxide (DMSO) were purchased from Sigma-Aldrich. HEPES buffer was purchased from Gibco. ABL1 kinase and Abltide were purchased from Signalchem.
c-Abl kinase activity was measured by Promega's ADP-Glo™ Assay. In this assay, His-tagged recombinant human ABL1 (0.25 ng/μl) is incubated with 5 μL of compounds (0.5% DMSO), 5 μL of Abltide (0.01 μg/μl) and 5 μL of ATP (25 μM) in buffer (50 mM HEPES, 7.5; 10 mM MgCl2; 1 mM EGTA; 0.05% BSA; 0.01% Triton X-100; 2 mM DTT). The assay was started by incubating the reaction mixture in a 96-well plate at 30° C. for 30-min. After the incubation, 25 μL ADP-Glo reagent was added and the reaction was incubated at room temperature for 40-min to stop the reaction and degrade residual ATP. The ADP product was then converted to ATP by adding 50 μL per well of detection reagent. Luminescence was detected after 30-min room temperature incubation with the Molecular device I3X plate reader. The IC50 values were calculated from a series of percent inhibition values determined at a range of inhibitor concentration using software routines as implemented in the GraphPad Prism 7 software and Sigma Plot 13.0.

LRRK2 G2019S = LRRK2 G2019S (Homo sapiens (Human), UniProt Q5S007, G2019S); test: LRRK2 G2019S Kinase Assay (Adapta); conditions: 100 μM ATP, LRRKtide substrate; read-out: LRRK2_G2019S IC50
Sequence of LRRK2 G2019S (Q5S007 whole entry G2019S): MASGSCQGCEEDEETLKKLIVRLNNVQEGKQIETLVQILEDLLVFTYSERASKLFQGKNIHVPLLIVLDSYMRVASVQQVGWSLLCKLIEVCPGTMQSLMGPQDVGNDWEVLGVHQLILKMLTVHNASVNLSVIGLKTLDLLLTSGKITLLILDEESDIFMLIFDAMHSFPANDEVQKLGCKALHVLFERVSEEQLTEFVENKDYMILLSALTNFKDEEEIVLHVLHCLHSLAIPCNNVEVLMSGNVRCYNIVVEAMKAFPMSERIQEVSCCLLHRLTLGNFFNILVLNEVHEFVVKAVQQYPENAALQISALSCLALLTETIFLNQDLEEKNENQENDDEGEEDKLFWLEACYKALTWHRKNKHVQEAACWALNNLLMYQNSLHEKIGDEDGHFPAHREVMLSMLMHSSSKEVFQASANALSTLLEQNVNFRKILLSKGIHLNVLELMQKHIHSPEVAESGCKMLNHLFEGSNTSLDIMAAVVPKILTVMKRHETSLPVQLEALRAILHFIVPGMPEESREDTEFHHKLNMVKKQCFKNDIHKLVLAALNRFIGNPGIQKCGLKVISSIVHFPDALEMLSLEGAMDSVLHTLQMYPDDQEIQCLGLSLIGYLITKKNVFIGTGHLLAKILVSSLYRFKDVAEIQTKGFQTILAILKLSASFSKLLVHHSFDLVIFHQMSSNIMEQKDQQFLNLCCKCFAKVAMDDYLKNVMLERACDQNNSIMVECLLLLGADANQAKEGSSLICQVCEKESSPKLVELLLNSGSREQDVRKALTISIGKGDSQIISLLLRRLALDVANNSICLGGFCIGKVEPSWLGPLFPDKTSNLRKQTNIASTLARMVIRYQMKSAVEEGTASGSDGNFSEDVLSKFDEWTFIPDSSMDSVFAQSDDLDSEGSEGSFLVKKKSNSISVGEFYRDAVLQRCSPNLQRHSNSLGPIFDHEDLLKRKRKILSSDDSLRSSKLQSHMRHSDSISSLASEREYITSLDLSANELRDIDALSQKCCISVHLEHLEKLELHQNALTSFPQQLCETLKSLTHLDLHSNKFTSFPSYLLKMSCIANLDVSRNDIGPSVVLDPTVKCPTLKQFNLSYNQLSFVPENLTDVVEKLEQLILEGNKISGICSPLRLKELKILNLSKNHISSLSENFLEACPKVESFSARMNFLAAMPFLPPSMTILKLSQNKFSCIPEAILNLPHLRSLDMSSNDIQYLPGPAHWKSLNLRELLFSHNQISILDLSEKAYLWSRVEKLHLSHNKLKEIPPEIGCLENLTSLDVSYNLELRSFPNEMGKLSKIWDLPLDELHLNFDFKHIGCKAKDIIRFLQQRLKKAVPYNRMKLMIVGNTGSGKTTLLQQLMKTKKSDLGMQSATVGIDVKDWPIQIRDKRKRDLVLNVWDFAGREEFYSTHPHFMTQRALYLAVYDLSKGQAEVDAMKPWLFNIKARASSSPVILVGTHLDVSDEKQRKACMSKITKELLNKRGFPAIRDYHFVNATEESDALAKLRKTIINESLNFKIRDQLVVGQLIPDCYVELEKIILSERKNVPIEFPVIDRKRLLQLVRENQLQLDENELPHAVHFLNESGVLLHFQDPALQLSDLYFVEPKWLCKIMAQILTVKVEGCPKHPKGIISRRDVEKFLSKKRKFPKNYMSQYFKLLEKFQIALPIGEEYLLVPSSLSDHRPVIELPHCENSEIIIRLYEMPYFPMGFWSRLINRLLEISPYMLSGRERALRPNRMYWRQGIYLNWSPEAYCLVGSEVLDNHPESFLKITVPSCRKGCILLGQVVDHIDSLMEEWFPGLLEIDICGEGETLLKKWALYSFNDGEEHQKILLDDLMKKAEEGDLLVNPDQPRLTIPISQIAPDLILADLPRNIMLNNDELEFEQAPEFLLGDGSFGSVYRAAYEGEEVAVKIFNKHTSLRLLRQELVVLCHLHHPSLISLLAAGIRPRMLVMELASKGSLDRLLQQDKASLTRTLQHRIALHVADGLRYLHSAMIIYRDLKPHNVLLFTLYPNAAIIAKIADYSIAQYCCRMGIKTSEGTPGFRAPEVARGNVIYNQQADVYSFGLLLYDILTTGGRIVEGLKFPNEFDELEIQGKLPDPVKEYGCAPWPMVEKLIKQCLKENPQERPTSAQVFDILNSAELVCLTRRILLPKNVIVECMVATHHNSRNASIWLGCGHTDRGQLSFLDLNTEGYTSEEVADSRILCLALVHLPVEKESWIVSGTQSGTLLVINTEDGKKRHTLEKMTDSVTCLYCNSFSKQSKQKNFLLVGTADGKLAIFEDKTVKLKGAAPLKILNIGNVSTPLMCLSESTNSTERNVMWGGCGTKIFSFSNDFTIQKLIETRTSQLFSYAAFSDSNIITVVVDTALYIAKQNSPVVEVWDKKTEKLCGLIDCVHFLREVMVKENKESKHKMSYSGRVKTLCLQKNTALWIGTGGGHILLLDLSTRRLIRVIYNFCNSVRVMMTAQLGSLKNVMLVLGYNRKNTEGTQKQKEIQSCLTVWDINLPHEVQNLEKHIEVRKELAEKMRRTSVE
Description: as §1

Sequence of LRRK2 (WT) (Q5S007 whole entry): as the sequence (Q5S007 whole entry G2019S) above, with S2019G counted along it

| SMILES | IC50 (LRRK2 (WT)) | IC50 [1] | IC50 (LRRK2 G2019S) |
| --- | --- | --- | --- |
| O=C(Nc1cn2cc(-c3cnccc3C(F)(F)F)ccc2n1)[C@@H]1C[C@@H]1F [Example 31, (1S,2S)-2-fluoro-N-(6-(4-(trifluoromethyl)pyridin-3-yl)imidazo[1,2-a]pyridin-2-yl)cyclopropane-1-carboxamide] | > 1000 nM | 101 to 1000 nM | 101 to 1000 nM |
| O=C1Cc2ccc(-c3ccc4nc(NC(=O)[C@@H]5C[C@@H]5F)cn4c3)cc2N1 [Example 35, (1S,2S)-2-fluoro-N-(6-(2-oxoindolin-6-yl)imidazo[1,2-a]pyridin-2-yl)cyclopropane-1-carboxamide] | > 1000 nM | 10 to 100 nM | > 1000 nM |
| N#Cc1ccncc1-c1ccc2nc(NC(=O)[C@@H]3C[C@@H]3F)cn2c1 [Example 36, (1S,2S)—N-(6-(4-cyanopyridin-3-yl)imidazo[1,2-a]pyridin-2-yl)-2-fluorocyclopropane-1-carboxamide] | > 1000 nM | 101 to 1000 nM | 101 to 1000 nM |
| Cc1cc(F)ccc1-c1ccc2nc(NC(=O)[C@@H]3C[C@@H]3F)cn2c1 [Example 39, (1S,2S)-2-fluoro-N-(6-(4-fluoro-2-methylphenyl)imidazo[1,2-a]pyridin-2-yl)cyclopropane-1-carboxamide] | 101 to 1000 nM | < 10 nM | 10 to 100 nM |
| Cc1ccc(-c2cc[nH]c2)cc1-c1ccc2nc(NC(=O)[C@@H]3C[C@@H]3F)cn2c1 [Example 40, (1S,2S)-2-fluoro-N-(6-(2-methyl-5-(1H-pyrrol-3-yl)phenyl)imidazo[1,2-a]pyridin-2-yl)cyclopropane-1-carboxamide] | 101 to 1000 nM | < 10 nM | 10 to 100 nM |
| Cc1cc(F)c(O)cc1-c1ccc2nc(NC(=O)[C@@H]3C[C@@H]3F)cn2c1 [Example 43, (1S,2S)-2-fluoro-N-(6-(4-fluoro-5-hydroxy-2-methylphenyl)imidazo[1,2-a]pyridin-2-yl)cyclopropane-1-carboxamide] | 101 to 1000 nM | < 10 nM | 10 to 100 nM |
| Cc1c(-c2ccc3nc(NC(=O)[C@@H]4C[C@@H]4F)cn3c2)ccc(F)c1F [Example 44, (1S,2S)—N-(6-(3,4-difluoro-2-methylphenyl)imidazo[1,2-a]pyridin-2-yl)-2-fluorocyclopropane-1-carboxamide] | 101 to 1000 nM | < 10 nM | 10 to 100 nM |
| Cc1c(F)ccc(F)c1-c1ccc2nc(NC(=O)[C@@H]3C[C@@H]3F)cn2c1 [Example 45, (1S,2S)—N-(6-(3,6-difluoro-2-methylphenyl)imidazo[1,2-a]pyridin-2-yl)-2-fluorocyclopropane-1-carboxamide] | 101 to 1000 nM | < 10 nM | 10 to 100 nM |
| Cc1c(-c2ccc3nc(NC(=O)[C@@H]4C[C@@H]4F)cn3c2)ccc(Cl)c1F [Example 46, (1S,2S)—N-(6-(4-chloro-3-fluoro-2-methylphenyl)imidazo[1,2-a]pyridin-2-yl)-2-fluorocyclopropane-1-carboxamide] | 101 to 1000 nM | < 10 nM | 101 to 1000 nM |
| Cc1ccnc(F)c1-c1ccc2nc(NC(=O)[C@@H]3C[C@@H]3F)cn2c1 [Example 47, (1S,2S)-2-fluoro-N-(6-(2-fluoro-4-methylpyridin-3-yl)imidazo[1,2-a]pyridin-2-yl)cyclopropane-1-carboxamide] | 101 to 1000 nM | 10 to 100 nM | 10 to 100 nM |
| Cc1cc(N)ncc1-c1ccc2nc(NC(=O)[C@@H]3C[C@@H]3F)cn2c1 [Example 49, (1S,2S)—N-(6-(6-amino-4-methylpyridin-3-yl)imidazo[1,2-a]pyridin-2-yl)-2-fluorocyclopropane-1-carboxamide] | > 1000 nM | < 10 nM | > 1000 nM |
| Cc1ccc2c(c1-c1ccc3nc(NC(=O)[C@@H]4C[C@@H]4F)cn3c1)CC(=O)N2 [Example 51, (1S,2S)-2-fluoro-N-(6-(5-methyl-2-oxoindolin-4-yl)imidazo[1,2-a]pyridin-2-yl)cyclopropane-1-carboxamide] | > 1000 nM | < 10 nM | > 1000 nM |
| Cc1cccc(Cl)c1-c1ccc2nc(NC(=O)[C@@H]3C[C@@H]3F)cn2c1 [Example 52, (1S,2S)—N-(6-(2-chloro-6-methylphenyl)imidazo[1,2-a]pyridin-2-yl)-2-fluorocyclopropane-1-carboxamide] | 101 to 1000 nM | < 10 nM | 10 to 100 nM |
| Cc1c[nH]c2ncc(-c3ccc4nc(NC(=O)[C@@H]5C[C@@H]5F)cn4c3)cc12 [Example 53, (1S,2S)-2-fluoro-N-(6-(3-methyl-1H-pyrrolo[2,3-b]pyridin-5-yl)imidazo[1,2-a]pyridin-2-yl)cyclopropane-1-carboxamide] | 101 to 1000 nM | < 10 nM | 10 to 100 nM |
| O=C(Nc1cn2cc(-c3ccc4sc(=O)[nH]c4c3)ccc2n1)[C@@H]1C[C@@H]1F [Example 54, (1S,2S)-2-fluoro-N-(6-(2-oxo-2,3-dihydrobenzo[d]thiazol-5-yl)imidazo[1,2-a]pyridin-2-yl)cyclopropane-1-carboxamide] | > 1000 nM | 10 to 100 nM | 101 to 1000 nM |
| Nc1ccc(-c2ccc3nc(NC(=O)[C@@H]4C[C@@H]4F)cn3c2)cn1 [Example 55, (1S,2S)—N-(6-(6-aminopyridin-3-yl)imidazo[1,2-a]pyridin-2-yl)-2-fluorocyclopropane-1-carboxamide] | 101 to 1000 nM | 10 to 100 nM | 101 to 1000 nM |

Further lines, results first:

| IC50 (LRRK2 (WT)) | IC50 [1] | IC50 (LRRK2 G2019S) | SMILES |
| --- | --- | --- | --- |
| 101 to 1000 nM | < 10 nM | 101 to 1000 nM | Cc1cc(Cl)ccc1-c1ccc2nc(NC(=O)[C@@H]3C[C@@H]3F)cn2c1 [Example 29, (1S,2S)—N-(6-(4-chloro-2-methylphenyl)imidazo[1,2-a]pyridin-2-yl)-2-fluorocyclopropane-1-carboxamide] |
| 101 to 1000 nM | < 10 nM | 101 to 1000 nM | Cc1c(Cl)cccc1-c1ccc2nc(NC(=O)[C@@H]3C[C@@H]3F)cn2c1 [Example 30, (1S,2S)—N-(6-(3-chloro-2-methylphenyl)imidazo[1,2-a]pyridin-2-yl)-2-fluorocyclopropane-1-carboxamide] |
| 101 to 1000 nM | < 10 nM | 101 to 1000 nM | Cc1ccc(-c2ccc3nc(NC(=O)[C@@H]4C[C@@H]4F)cn3c2)c(C)c1 [Example 32, (1S,2S)—N-(6-(2,4-dimethylphenyl)imidazo[1,2-a]pyridin-2-yl)-2-fluorocyclopropane-1-carboxamide] |
| 101 to 1000 nM | < 10 nM | 101 to 1000 nM | Cc1c(F)cccc1-c1ccc2nc(NC(=O)[C@@H]3C[C@@H]3F)c(F)n2c1 [Example 33, (1S,2S)-2-fluoro-N-(3-fluoro-6-(3-fluoro-2-methylphenyl)imidazo[1,2-a]pyridin-2-yl)cyclopropane-1-carboxamide] |
| 101 to 1000 nM | < 10 nM | 101 to 1000 nM | Cc1ccc(C)c(-c2ccc3nc(NC(=O)[C@@H]4C[C@@H]4F)cn3c2)c1 [Example 34, (1S,2S)—N-(6-(2,5-dimethylphenyl)imidazo[1,2-a]pyridin-2-yl)-2-fluorocyclopropane-1-carboxamide] |
| 101 to 1000 nM | < 10 nM | 101 to 1000 nM | Cc1c(F)ccc(-c2ccc3nc(NC(=O)[C@@H]4C[C@@H]4F)cn3c2)c1C [Example 37, (1S,2S)-2-fluoro-N-(6-(4-fluoro-2,3-dimethylphenyl)imidazo[1,2-a]pyridin-2-yl)cyclopropane-1-carboxamide] |
| 101 to 1000 nM | < 10 nM | 101 to 1000 nM | Cc1cc(F)cc(C)c1-c1ccc2nc(NC(=O)[C@@H]3C[C@@H]3F)cn2c1 [Example 38, (1S,2S)-2-fluoro-N-(6-(4-fluoro-2,6-dimethylphenyl)imidazo[1,2-a]pyridin-2-yl)cyclopropane-1-carboxamide] |
| 10 to 100 nM | < 10 nM | 10 to 100 nM | Cc1ccsc1-c1ccc2nc(NC(=O)[C@@H]3C[C@@H]3F)cn2c1 [Example 41, (1S,2S)-2-fluoro-N-(6-(3-methylthiophen-2-yl)imidazo[1,2-a]pyridin-2-yl)cyclopropane-1-carboxamide] |
| 10 to 100 nM | < 10 nM | 10 to 100 nM | Cc1c(F)cc(N)cc1-c1ccc2nc(NC(=O)[C@@H]3C[C@@H]3F)cn2c1 [Example 50, (1S,2S)—N-(6-(5-amino-3-fluoro-2-methylphenyl)imidazo[1,2-a]pyridin-2-yl)-2-fluorocyclopropane-1-carboxamide] |
